Measured values: patent US9119881B2, “Method of synergistically enhancing the therapeutic efficacy and safety of medication through a combination therapy” (priority 2010, dated 2015)
Marks after values point to notes of the source that are not given here.

Assays:
[1] = system: stromal vascular cells (SVCs); assay: Gene expression in LPS-treated stromal vascular cells; assay type: cell-based, mice; settings: LPS 100 ng/mL, 6 h, ABA 10 μM, rosiglitazone 1 μM
Protocol: SVCs from abdominal white adipose tissue were isolated from db/db mice fed high-fat control diet for 60 days. Cells were seeded into 24-well plates at 1×10^6 cells/well and treated with LPS (100 ng/mL) with and without ABA (10 μM), Ros (1 μM), or ABA and Ros (ABA/Ros). The relative expressions of genes peroxisome proliferator activated receptor γ (PPAR γ) (A), CCL17 (B), monocyte chemoattractant protein 1 (MCP-1) (C), and mannose receptor (D) were calculated as a ratio to the housekeeping gene β-actin. Data are represented as mean±standard error.
Isolated cells from the stromal vascular fraction (SVF) of WAT from high-fat fed db/db mice were enumerated and seeded into 24-well plates at […] cells/well. […]
Total RNA was isolated from adipose tissue using the RNeasy Lipid Mini Kit (Qiagen) and from cells using the RNeasy Mini Kit (Qiagen) according to the manufacturer's instructions. […] Each gene amplicon was purified with the MiniElute PCR Purification Kit (Qiagen) and quantitated on an agarose gel by using a DNA mass ladder (Promega). […]
Complementary DNA (cDNA) concentrations for genes of interest were examined by real-time quantitative PCR using an iCycler IQ System and Sybr Green PCR master mix (Applied Biosystems, Foster City, Calif.). […] Results are presented as starting quantity of target cDNA (picograms) per microgram of total RNA.

[2] = system: retinoid X receptor (RXR); assay: RXR luciferase reporter in transfected 3T3-L1 preadipocytes; assay type: cell-based; settings: ABA 10 μM with 9-cis retinoic acid 10 μM
Protocol: A pCMX.L-RXR or pCMX.RAR expression plasmid and a luciferase reporter plasmid were purified using Qiagen's Maxi kit (Valencia, Calif.). 3T3-L1 preadipocytes (American Type Culture Collection, Manassas, Va.) were grown in DMEM high glucose medium (Invitrogen, Carlsbad, Calif.) containing 10% fetal bovine serum (FBS). The cells cultured in 25 cm^2 flasks were co-transfected with 0.6 ug plasmid DNA and 1 ng of pRL reporter control plasmid per well using F-2 transfection reagents (Targeting Systems, Santee, Calif.) according to the manufacturer's protocol. After 24 hours, transfected cells were split trypsin and seeded into 96-well white plates at a concentration of 20,000 cells/wells. The transfected cells were then treated with 9-cis retinoic acid (0, 10 μM; Sigma), or retinoic acid (RA, 10 μM; Sigma), with ABA (10 μM; Sigma) Transfected cells were harvested in reporter lysis reagent. Luciferase activity, normalized to pRL activity in the cell extracts was determined by using the dual luciferase reporter assay system (Promega, Madison, Wis.) in a Modulus 96-well plate reader (Turner Biosystems, Sunnyvale, Calif.). Relative luciferase activity (RLA) was calculated as a ratio of the chemiluminescence 10 seconds after the Luciferase Assay Reagent II (Promega) was added over the chemiluminescence 10 seconds after the Stop&Glo Reagent (Promega).

[3] = Dietary ABA and rosiglitazone in obese db/db mice: body and organ weights; assay type: in vivo; settings: db/db mice, ABA 100 mg/kg diet, day 60
Protocol: Twelve-fifteen week-old BKS.Cg-+Lepr^db/+Lepr^db/OlaHsd (db/db) mice were housed at the animal facilities at Virginia Polytechnic Institute and State University in a room maintained at 75° F., with a 12:12 h light-dark cycle starting from 6:00 AM. All experimental procedures were approved by the Institutional Animal Care and Use Committee of Virginia Polytechnic Institute and State University and met or exceeded requirements of the Public Health Service, National Institutes of Health and the Animal Welfare Act. […] Louis, Mo.) for 60 days. Mice were weighed and fasting (12 h) blood glucose levels were taken weekly. Blood glucose levels were assessed with an ACCU-CHEK® Glucometer (Roche, Indianapolis, Ind.). […] On day 60 mice were sacrificed by CO2 narcosis with secondary thoracotomy. Abdominal WAT, inguinal subcutaneous WAT, and liver were then excised and weighed. Abdominal and subcutaneous WAT were then digested and fractionated.

## CC1=CC(=O)CC(C)(C)C1(O)/C=C/C(C)=C\C(=O)O (racemic) [ABA, abscisic acid]
[1]
  M1 marker CCL17 expression: significantly reduced
[2]
  activity of RXR ligands: synergistically enhances
[3]; no rosiglitazone
  Ab. WAT % Body Weight: 4.7 ± 0.68^a % Body Weight
  Sc. WAT % Body Weight: 2.8 ± 0.48 % Body Weight
[3]; Ros^hi
  Ab. WAT as percent body weight (in words): significantly and independently reduced
  inguinal SCAT weight (in words): little affect
